Laboratory results as given in the NIST ThermoML archive (doi:10.1016/j.tca.2004.11.004).
± gives the expanded uncertainty stated by the source.

What was measured:
[1] = Molar enthalpy of transition or fusion; conditions: Crystal; DSC
[2] = Crystal; DTA

SMILES | Molar enthalpy of transition or fusion [1] | Normal melting temperature [2]
CC(=O)[O-].[Cs+] [cesium acetate] | 2.63 ± 0.0956 kcal/mol | 191.6 ± 0.4 °C
CC(=O)[O-].[Li+] [lithium acetate] | 3.01 ± 0.0956 kcal/mol | 283.5 ± 0.4 °C

Second part, the compound after the results:

Molar enthalpy of transition or fusion [1] | Normal melting temperature [2] | SMILES
2.87 ± 0.0956 kcal/mol | 305.2 ± 0.4 °C | CC(=O)[O-].[K+] [potassium ethanoate]
4.16 ± 0.0956 kcal/mol | 329.4 ± 0.4 °C | CC(=O)[O-].[Na+] [sodium ethanoate]
2.13 ± 0.191 kcal/mol | 240.5 ± 0.4 °C | CC(=O)[O-].[Rb+] [rubidium acetate]
